# Measured values: patent publication US20240209028A1, “CNP COMPOUNDS” (priority 2022, published 2024)
# Starred links: 1 amine or outer side, 2 acyl side, 3 side chain; linkers in the order of their positions; H or OH if unused. Positions of bridges follow the written chain, without caps; N, C: chain ends. Residues, ends and D or L forms follow the SMILES beside them. *: point of attachment. C18 diacid = O=C(O)CCCCCCCCCCCCCCCCC(=O)*; γGlu = O=C(O)[C@H](CCC(=O)[*:2])N[*:1]
# Assay: Accelerated chemical stability (RP-UPLC recovery and LCMS degradation pattern, 37° C.)
# Format: physicochemical
# Parameters: Isomers TZ / Isomers 2 W / Loss of 18 amu TZ / Loss of 18 amu 2 W / Fragments TZ / Fragments 2 W / Fragments 1 W / Fragments 3 W / Fragments 4 W / Fragments 5 W / Fragments 6 W / Others 1 W / Others 3 W / Others 4 W / Others 5 W / Others 6 W / Isomers 1 W / Isomers 3 W / Isomers 4 W / Isomers 5 W / Isomers 6 W / Loss of 18 amu 1 W / Loss of 18 amu 3 W / Loss of 18 amu 4 W / Loss of 18 amu 5 W / Loss of 18 amu 6 W: unit not given here
# Conditions: LCMS, 6 week study
# Method: In order to determine the chemical stability of CNP compounds in formulation, samples of CNP compounds in buffer were exposed to accelerated chemical degradation by heating. The stability of a given peptide was assessed by measuring recovery of intact peptide by quantification by RP-UPLC. To assess the chemical degradation pattern samples were also analysed by LC-MS.
# Sample preparation: Samples for the 2 week study were prepared according to the principles described in Example 5.
# Samples for the 6 week study were prepared by dissolving lyophilized peptide in buffer (8 mM phosphate, 250 mM glycerol, pH 7.4) to a nominal peptide concentration of 5000 nmol/ml followed by pH adjustment with 0.1 N HCl to pH 6.5.
# Incubation: For the 2 week study a time-zero (TZ) sample was pulled and stored at −18° C. and the remaining volume was incubated at 37° C. Samples were pulled and stored at −18° C. after 2 weeks of incubation. Frozen samples were thawed, diluted to about 200 nmol/mL and the extent of chemical degradation was determined using LCMS as described.
# For the 6 week study a time-zero (TZ) sample was pulled and stored at −18° C. and the remaining volume was incubated at 37° C. Samples were pulled on a weekly basis and stored at −18° C. until the last sampling time point at 6 weeks. Frozen samples were thawed, diluted to about 200 nmol/mL and the extent of chemical degradation was determined using RP-UPLC and LCMS as described.
# Analysis of peptide recovery by RP-UPLC: The RP-UPLC method was performed on a Waters ACQUITY H-CLASS UPLC system fitted with a PDA detector. Separation was carried out on an ACQUITY UPLC BEH C8 Column (130 Å, 1.7 μm, 2.1 mm×150 mm) operating at a column temperature of 50° C. with eluent A (19.59 mM NH4H2PO4 41.71 mM (NH4)2HPO4, pH 6.5 and MeCN 9:1 v:v) and eluent B (80% MeCN in water). UV-detection was carried out at 214 nm. The analysis was performed by injection of 3 μL of sample onto the column which was eluted with a 1-step linear gradient of eluents A and B from 27 to 30% B over 20 minutes followed by a wash at 95% B over 2 minutes followed by a re-equilibration phase for 7 minutes at a constant flow rate of 0.3 mL/min. This yielded an analysis time of 30 minutes per sample. The area of the peak corresponding to intact CNP compound was given on a percentage scale relative to the total peptide peak area.
# Analysis of chemical degradation patterns by LCMS: Samples were analysed on a […] UPLC from Thermo Scientific, using a Waters Acquity C18 reversed-phase column, 300 Å, […] particles 1 mm×150 mm. The compounds were separated by a linear gradient of solvent B from 5% to 55% over 48 minutes, using solvent A: water, 0.1% formic acid with 0.02% TFA and solvent B: acetonitrile, 0.1% formic acid with 0.02% TFA. Mass spectra were acquired by a Q Exactive Plus hybrid Quadrupole-Orbitrap mass spectrometer, BioPharma option (Thermo Scientific) interfaced with H-ESI II ion source. Data acquisitions were performed with a m/z 500 to 2000 scan range and a resolution of 30000.
# The data list was aggregated into a summed table of the compounds. The table headers were defined as follows: […]
# Results: The results from LCMS analysis of a 2 week accelerated degradation study on several CNP compounds of the present invention are summarised in Table 12. The results from RP-UPLC and LCMS analysis of a 6 week accelerated degradation study on CNP compound 9482 (Chem. 137) is summarised in Table 13 and Table 14 respectively.
compound,measurement,setting,value
CC[C@H](C)[C@@H]1NC(=O)[C@H](CCCNC(=N)N)NC(=O)[C@H](CC(=O)O)NC(=O)[C@H](CC(C)C)NC(=O)[C@@H]2CCCN2C(=O)[C@H](CC(C)C)NC(=O)CNC(=O)[C@H](Cc2ccccc2)NC(=O)[C@@H](NC(=O)CNC(=O)[C@H](CO)NC(=O)[C@H](CO)NC(=O)[C@H](CC(C)C)NC(=O)CNC(=O)[C@H](CCCCN)NC(=O)[C@H](CCCCN)NC(=O)[C@H](CCC(N)=O)NC(=O)[C@H](C)NC(=O)CNC(=O)[C@H](CCCCN)NC(=O)[C@H](Cc2ccc(O)cc2)NC(=O)[C@H](CCCCN)NC(=O)[C@H](CCCNC(=N)N)NC(=O)[C@H](C)NC(=O)[C@H](CCC(N)=O)NC(=O)[C@@H]2CCCN2C(=O)[C@H](Cc2c[nH]cn2)NC(=O)[C@H](CCC(=O)O)NC(=O)[C@H](CCC(N)=O)NC(=O)CC[C@H](NC(=O)CC[C@H](NC(=O)CC[C@H](NC(=O)CC[C@H](NC(=O)CC[C@H](NC(=O)CCCCCCCCCCCCCCCCC(=O)O)C(=O)O)C(=O)O)C(=O)O)C(=O)O)C(=O)O)CSSC[C@@H](C(=O)O)NC(=O)CNC(=O)[C@H](CC(C)C)NC(=O)CNC(=O)[C@H](CO)NC(=O)[C@H](CC(C)C)NC(=O)[C@H](CO)NC(=O)CNC1=O [compound 9482] ({C18 diacid-γGlu-γGlu-γGlu-γGlu-γGlu}-QEHPQARKYKGAQKKGLSSGCFGLPLDRIGSLSGLGC-OH; disulfide 21-37),Fragments 1 W,1 week at 37° C.,0.20
same,Isomers 1 W,1 week at 37° C.,0.00
same,Loss of 18 amu 1 W,1 week at 37° C.,0.00
same,Others 1 W,1 week at 37° C.,0.30
same,Fragments 2 W,2 weeks at 37° C.,0.30
same,Isomers 2 W,2 weeks at 37° C.,0.60
same,Loss of 18 amu 2 W,2 weeks at 37° C.,0.10
same,Others 2 W,2 weeks at 37° C.,0.3%
same,Fragments 3 W,3 weeks at 37° C.,0.50
same,Isomers 3 W,3 weeks at 37° C.,1.20
same,Loss of 18 amu 3 W,3 weeks at 37° C.,0.10
same,Others 3 W,3 weeks at 37° C.,0.30
same,Fragments 4 W,4 weeks at 37° C.,0.90
same,Isomers 4 W,4 weeks at 37° C.,1.70
same,Loss of 18 amu 4 W,4 weeks at 37° C.,0.20
same,Others 4 W,4 weeks at 37° C.,0.50
same,Fragments 5 W,5 weeks at 37° C.,0.80
same,Isomers 5 W,5 weeks at 37° C.,2.40
same,Loss of 18 amu 5 W,5 weeks at 37° C.,0.20
same,Others 5 W,5 weeks at 37° C.,0.40
same,Fragments 6 W,6 weeks at 37° C.,1.20
same,Isomers 6 W,6 weeks at 37° C.,3.90
same,Loss of 18 amu 6 W,6 weeks at 37° C.,0.30
same,Others 6 W,6 weeks at 37° C.,0.50
same,Fragments TZ,time zero,0.00
same,Isomers TZ,time zero,0.00
same,Loss of 18 amu TZ,time zero,0.00
same,Others TZ,time zero,0.2%
